Drawing on patent US20220372040A1, “METTL3 MODULATORS” (Accent Therapeutics, Inc., priority 2020, published 2022), this text covers IC50 for 43 compounds.

The target of test [1] is PRMT5-MEP50 (Homo sapiens, UniProt O14744). Put plainly: PRMT5 assay (3H-SAM flashplate scintillation). It counts as biochemical. As to conditions: PRMT5-MEP50 2.5 nM, histone H4 peptide 100 nM, 3H-SAM 250 nM, 60 min. The method, then: Assays were performed in a 25 μl-volume in 384-well V-bottom polypropylene microplates (Greiner Bio-One, cat. No. 781280) at ambient temperature. Optimized 1× assay buffer was 20 mM Tris-HCl pH 8.0, 1 mM DTT, […]. For compound screening PRMT5-MEP50 (final concentration, f.c.=2.5 nM) was added using a Multidrop Combi (ThermoFisher Scientific, Waltham, Mass.) and preincubated for 5 min. Reactions were started by adding 3′ biotinylated histone H4 peptide acetylated on serine 1 (Ac-[…]-Biotin) (f.c.=100 nM) and 3H-SAM (f.c.=250 nM) substrates. Reactions proceeded for 60 minutes and were quenched with excess non-radioactive SAM (f.c.=15 μM). The reactions were then transferred to streptavidin-coated flashplates and incubated for 2 hours at 25° C. Following two washing cycles with 0.1% Tween-20, the plates were sealed and read on a TopCount (PerkinElmer, Waltham, Mass.) plate-based scintillation counter. For determination of kinetic parameters, reaction times were optimized so that measurements were taken during the initial velocity phase of the reaction.
PRMT5-MEP50, sequence (O14744 whole entry): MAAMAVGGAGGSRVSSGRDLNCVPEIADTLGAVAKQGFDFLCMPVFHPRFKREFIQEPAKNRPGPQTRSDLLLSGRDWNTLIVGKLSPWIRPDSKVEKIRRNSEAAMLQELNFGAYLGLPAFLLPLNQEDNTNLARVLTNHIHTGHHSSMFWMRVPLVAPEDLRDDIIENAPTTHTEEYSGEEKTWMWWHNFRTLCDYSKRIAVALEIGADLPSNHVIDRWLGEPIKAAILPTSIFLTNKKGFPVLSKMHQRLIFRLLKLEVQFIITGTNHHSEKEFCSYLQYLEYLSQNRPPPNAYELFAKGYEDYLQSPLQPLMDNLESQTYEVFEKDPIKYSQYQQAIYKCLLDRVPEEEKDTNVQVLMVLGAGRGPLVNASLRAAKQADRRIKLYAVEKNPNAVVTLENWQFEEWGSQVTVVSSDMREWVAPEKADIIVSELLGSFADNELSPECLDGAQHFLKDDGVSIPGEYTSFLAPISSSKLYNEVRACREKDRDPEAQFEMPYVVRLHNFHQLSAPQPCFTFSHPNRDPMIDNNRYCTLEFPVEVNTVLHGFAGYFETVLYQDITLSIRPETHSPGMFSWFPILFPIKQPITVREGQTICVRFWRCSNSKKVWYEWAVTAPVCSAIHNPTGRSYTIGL
PRMT5-MEP50, sequence (Q9BQA1 whole entry partner): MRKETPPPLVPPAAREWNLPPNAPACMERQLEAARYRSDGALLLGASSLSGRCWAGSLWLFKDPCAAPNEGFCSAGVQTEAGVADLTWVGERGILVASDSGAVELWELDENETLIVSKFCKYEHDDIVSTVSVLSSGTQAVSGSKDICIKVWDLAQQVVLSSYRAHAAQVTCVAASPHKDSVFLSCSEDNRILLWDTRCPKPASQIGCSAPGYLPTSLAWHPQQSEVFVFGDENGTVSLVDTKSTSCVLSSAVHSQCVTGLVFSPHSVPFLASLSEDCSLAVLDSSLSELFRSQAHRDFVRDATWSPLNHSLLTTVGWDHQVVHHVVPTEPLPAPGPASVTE

Test [2] deals with METTL3/METTL14 (Homo sapiens, UniProt Q86U44). Put plainly: METTL3-14 standard enzyme assay (3H-SAM flashplate scintillation). In kind it is biochemical. As to conditions: METTL3/METTL14 2.5 nM, RNA 100 nM, 3H-SAM 100 nM, 30 min. The method, then: METTL3-14 Standard Enzyme Assay
METTL3/METTL14, sequence (Q86U44 whole entry, species assumed): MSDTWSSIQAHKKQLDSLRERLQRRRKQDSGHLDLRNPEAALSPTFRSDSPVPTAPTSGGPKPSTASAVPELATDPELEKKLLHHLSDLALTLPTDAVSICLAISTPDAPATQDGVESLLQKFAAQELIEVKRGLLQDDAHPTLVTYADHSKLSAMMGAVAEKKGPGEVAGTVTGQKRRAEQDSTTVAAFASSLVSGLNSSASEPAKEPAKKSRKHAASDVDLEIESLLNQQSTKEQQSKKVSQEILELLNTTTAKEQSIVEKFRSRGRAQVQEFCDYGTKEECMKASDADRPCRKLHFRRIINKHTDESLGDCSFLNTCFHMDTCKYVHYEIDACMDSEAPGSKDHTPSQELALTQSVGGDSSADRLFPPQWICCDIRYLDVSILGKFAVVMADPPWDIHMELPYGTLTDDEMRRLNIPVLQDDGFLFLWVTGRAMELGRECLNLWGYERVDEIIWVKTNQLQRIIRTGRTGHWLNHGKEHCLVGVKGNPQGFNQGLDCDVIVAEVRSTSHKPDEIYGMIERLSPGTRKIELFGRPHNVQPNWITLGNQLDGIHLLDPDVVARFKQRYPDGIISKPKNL
METTL3/METTL14, sequence (Q9HCE5 whole entry partner, species assumed): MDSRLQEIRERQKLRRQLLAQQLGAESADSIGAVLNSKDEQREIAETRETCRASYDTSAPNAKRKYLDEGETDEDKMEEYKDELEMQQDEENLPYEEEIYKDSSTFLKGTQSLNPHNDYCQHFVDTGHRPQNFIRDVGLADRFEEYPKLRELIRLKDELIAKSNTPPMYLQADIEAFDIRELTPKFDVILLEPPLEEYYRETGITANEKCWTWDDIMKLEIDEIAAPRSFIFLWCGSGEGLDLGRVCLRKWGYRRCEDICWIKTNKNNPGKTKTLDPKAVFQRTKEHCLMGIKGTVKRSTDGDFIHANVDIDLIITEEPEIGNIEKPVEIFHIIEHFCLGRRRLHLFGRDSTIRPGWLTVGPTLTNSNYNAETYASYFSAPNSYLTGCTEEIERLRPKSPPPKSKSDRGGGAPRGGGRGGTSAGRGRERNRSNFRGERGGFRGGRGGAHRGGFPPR
Assays were performed in a 25 μl-volume in 384-well V-bottom polypropylene microplates (Greiner Bio-One, cat. No. 781280) at ambient temperature. Optimized 1× assay buffer was 20 mM HEPES pH 7.5, 50 mM KCl, 250 μM MgCl2, 1 mM DTT, 0.01% Tween, 0.01% BSG, 0.004 U/μl RNAseOUT (cat. No. 10777019, ThermoFisher Scientific, Waltham, Mass.). For compound screening METTL3/METTL14 (final concentration, f.c.=2.5 nM) was added using a Multidrop Combi (ThermoFisher Scientific, Waltham, Mass.) and preincubated for 5 min. Reactions were started by adding 3′ biotinylated RNA (UCUGGACUAAA-biotin) (f.c.=100 nM) and 3H-SAM (f.c.=100 nM) substrates. Reactions proceeded for 30 minutes and were quenched with excess non-radioactive SAM (f.c.=15 μM). The reactions were then transferred to streptavidin-coated flashplates and incubated for 2 hours at 25° C. Following two washing cycles with 0.1% Tween-20, the plates were sealed and read on a TopCount (PerkinElmer, Waltham, Mass.) plate-based scintillation counter. For determination of kinetic parameters, reaction times were optimized so that measurements were taken during the initial velocity phase of the reaction.

As a reminder, the IC50 is the midpoint of a concentration-inhibition curve. `Cn1ccc(-c2cn(-c3cncc(COc4ccc5ccc(N6CC7(COC7)C6)nc5c4)c3)c3ncnc(N)c23)n1` [Compound I-201]: the IC50 was above 1000 nM in test [1] and 100 to 1000 nM in test [2].
`Nc1ncnc2c1c([C@@H]1CCCO1)cn2-c1cncc(COc2ccc3ccc(N4CCC4)nc3c2)n1` [Compound I-161]: in test [2], the IC50 is below 10 nM.
Regarding `CCc1cc(N2CCC2)nc2cc(OCc3cncc(-n4cc(C5CCCO5)c5c(N)ncnc54)c3)cc(F)c12` (stereo not drawn) [Compound I-199], the IC50 in test [1] and in test [2] was above 1000 nM each time.
As for `COc1ccccc1-c1cn(-c2cncc(COc3ccc4ccc(N5CCC5)nc4c3)c2)c2ncncc12` [Compound I-184], the IC50 in test [1] and in test [2] was above 1000 nM each time.
As to `Cn1ccc(-c2cn(-c3cncc(COc4ccc5cnc(N6CCC6)nc5c4)c3)c3ncnc(N)c23)n1` [Compound I-183], the IC50 in test [1] and in test [2] was above 1000 nM throughout.
Regarding `CN1CCN(c2ccc3ccc(OCc4cncc(-n5cc(-c6ccn(C)n6)c6c(N)ncnc65)c4)cc3n2)CC1` [Compound I-204], the IC50 in test [1] was above 1000 nM; in test [2] it was 100 to 1000 nM.
As for `Nc1ncnc2c1c(Cl)cn2-c1cccc(COc2ccc3ccc(N4CCCC4)nc3c2)c1` [Compound I-63], the IC50 in test [2] was above 1000 nM.
Consider `Cn1ccc(-c2cn(-c3cncc(COC(=O)Nc4cccc(Br)n4)c3)c3ncnc(N)c23)n1` [Compound I-223], for which the IC50 in test [1] and in test [2] was above 1000 nM each time.
Regarding `Cn1ccc(-c2cn(-c3cncc(COc4ccc5ccc(N6CCCC6=O)nc5c4)c3)c3ncnc(N)c23)n1` [Compound I-195], the IC50 in test [1] and in test [2] was above 1000 nM throughout.
For `CN(CCS(C)(=O)=O)c1ccc2ccc(OCc3cncc(-n4cc(-c5ccn(C)n5)c5c(N)ncnc54)c3)cc2n1` [Compound I-175], the values for the IC50 in test [1] and in test [2] were above 1000 nM and 100 to 1000 nM, respectively.
For `Nc1ncnc2c1ccn2-c1csc(COc2ccc3ccc(N4CCCC4)nc3c2)n1` [Compound I-54], the IC50 is above 1000 nM in test [1] and 100 to 1000 nM in test [2].
Taken in the same sequence, the figures for `Cn1ccc(-c2cn(-c3cncc(CNC(=O)Nc4cccc(N5CCC5)n4)c3)c3ncnc(N)c23)n1` [Compound I-225, 1-({5-[4-amino-5-(1-methyl-1H-pyrazol-3-yl)-7H-pyrrolo[2,3-d]pyrimidin-7-yl]pyridin-3-yl}methyl)-3-[6-(azetidin-1-yl)pyridin-2-yl]urea] were above 1000 nM and above 1000 nM.
Taken in the same sequence, the figures for `CC1COc2ccc(OCc3cncc(-n4cc(-c5ccn(C)n5)c5c(N)ncnc54)c3)cc2N1` (stereo not drawn) [Compound I-171] were above 1000 nM and above 1000 nM.
For `Cn1ccc(-c2cn(-c3cncc(COc4ccc(CN5CCOCC5)c(N)c4)c3)c3ncnc(N)c23)n1` [Compound I-210], in that order: above 1000 nM and 100 to 1000 nM.
As for `Cn1ccc(-c2cn(-c3cncc(COc4ccc5ccc(N6CCOCC6)nc5c4)c3)c3ncnc(N)c23)n1` [Compound I-196], the IC50 lay within 100 to 1000 nM in test [1] and 10 to 100 nM in test [2].
In the case of `Cn1ccc(-c2cn(-c3cncc(COC(=O)Nc4cccc(N5CCC5)n4)c3)c3ncnc(N)c23)n1` [Compound I-224, {5-[4-amino-5-(1-methyl-1H-pyrazol-3-yl)-7H-pyrrolo[2,3-d]pyrimidin-7-yl]pyridin-3-yl}methyl N-[6-(azetidin-1-yl)pyridin-2-yl]carbamate], the IC50 in test [1] and in test [2] was above 1000 nM each time.
Consider `Nc1ncnc2c1c(C1CCCO1)cn2-c1cncc(COc2cnc3ccc(N4CCC4)nc3c2)c1` (stereo not drawn) [Compound I-207], for which the IC50 in test [1] and in test [2] was above 1000 nM each time.
For the compound `CCc1cc(N(C)C2CC2)c2ccc(OCc3cncc(-n4cc([C@@H]5CCCO5)c5c(N)ncnc54)n3)cc2n1` [Compound I-174], the IC50 is above 1000 nM in test [1] and 10 to 100 nM in test [2].
Taken in the same sequence, the figures for `Cn1ccc(-c2cn(-c3cncc(COc4cc(F)c5ccc(N6CCC6)nc5c4)c3)c3ncnc(N)c23)n1` [Compound I-208] were above 1000 nM and 10 to 100 nM.
For `Cn1ccc(-c2cn(-c3cncc(COc4ccc(-c5ncco5)c(N)c4)c3)c3ncnc(N)c23)n1` [Compound I-211], in that order: above 1000 nM and above 1000 nM.
Taken in the same sequence, the figures for `Cn1ccc(-c2cn(-c3cncc(COc4ccc(CN5CCC(CO)CC5)c(N)c4)c3)c3ncnc(N)c23)n1` [Compound I-200] were above 1000 nM and 100 to 1000 nM.
As to `CCc1cc(N2CCC2)nc2cc(F)cc(OCc3cncc(-n4cc(C5CCCO5)c5c(N)ncnc54)c3)c12` (stereo not drawn) [Compound I-198], the IC50 in test [1] and in test [2] was above 1000 nM throughout.
In turn, `CCc1cc(NCCOC)c2c(F)cc(OCc3cncc(-n4cc([C@H]5CCCO5)c5c(N)ncnc54)c3)cc2n1` [Compound I-163] gave an IC50 in test [2] of 10 to 100 nM.
In the case of `Cn1ccc(-c2cn(-c3cncc(COc4cc(F)ccc4C(=O)NC4CCOCC4)c3)c3ncnc(N)c23)n1` [Compound I-181], the IC50 in test [1] and in test [2] was above 1000 nM throughout.
For the compound `COCCN(C)C(=O)c1ccc(OCc2cncc(-n3cc(-c4ccn(C)n4)c4c(N)ncnc43)c2)cc1N` [Compound I-191], the IC50 in test [1] and in test [2] was above 1000 nM each time.
As for `CN(CCO)C(=O)c1ccc(OCc2cncc(-n3cc(-c4ccn(C)n4)c4c(N)ncnc43)c2)cc1N` [Compound I-209], the IC50 in test [1] and in test [2] was above 1000 nM each time.
In test [2], `CCNc1ccc2ccc(CCc3cncc(-n4cc([C@@H]5CCCO5)c5c(N)ncnc54)n3)cc2n1` [Compound I-140] returned an IC50 below 10 nM.
As for `CCc1ccc2ccc(OCc3cncc(-n4cc(-c5ccn(C)n5)c5c(N)ncnc54)c3)cc2n1` [Compound I-180], the IC50 in test [1] is above 1000 nM; in test [2], 10 to 100 nM.
As for `Cn1ccc(-c2cn(-c3cncc(COc4ccc(C(=O)N5CCC(F)(F)CC5)c(N)c4)c3)c3ncnc(N)c23)n1` [Compound I-186], the IC50 in test [1] and in test [2] was above 1000 nM in each case.
Compound `CCc1cc(N2CCNCC2)c2ccc(OCc3cncc(-n4cc([C@H]5CCCO5)c5c(N)ncnc54)c3)cc2n1` [Compound I-148] registered a half-inhibitory concentration (IC50) in test [2] of 10 to 100 nM.
Take `CN(C)CCNC(=O)c1ccc(OCc2cncc(-n3cc(Br)c4c(N)ncnc43)c2)cc1N` [Compound I-218]: the IC50 in test [1] and in test [2] was above 1000 nM in each case.
In the case of `CCNc1ccc2ccc(CCc3cncc(-n4cc([C@H]5CCCO5)c5c(N)ncnc54)n3)cc2n1` [Compound I-139], the half-maximal inhibitory concentration (IC50) in test [2] lay within 10 to 100 nM.
Still for that read-out and setting: for `CC(C)c1cc(N)c2ccc(CCc3cncc(-n4cc(C5CCCC5)c5c(N)ncnc54)c3)cc2n1` [Compound I-130] the value was 10 to 100 nM; for `Nc1ncnc2c1c(CO)cn2-c1cncc(COc2ccc3ccc(N4CCC4)nc3c2)c1` [Compound I-182], below 10 nM; for `CCc1cc(NCCOC)c2ncc(OCc3cncc(-n4cc([C@H]5CCCO5)c5c(N)ncnc54)c3)cc2n1` [Compound I-151], 10 to 100 nM.
Take `CCc1cc(C)c2ccc(OCc3cncc(-n4cc([C@@H]5CCCO5)c5c(N)ncnc54)c3)cc2n1` [Compound I-168]: the IC50 in test [2] lay in the range of 10 to 100 nM.
Same read-out and setting: for `CCc1cc(NC(C)=O)c2ccc(OCc3cncc(-n4cc([C@@H]5CCCO5)c5c(N)ncnc54)c3)cc2n1` [Compound I-165] the value was 10 to 100 nM.
Take `CC(C)c1cc(N)c2ccc(CCc3cncc(-n4ccc5c(N)ncnc54)c3)cc2n1` [Compound I-129]: the IC50 in test [2] fell in the range of 10 to 100 nM.
The same measure, in the same setting: for `CCc1cc(NCCOC)c2c(F)cc(OCc3cncc(-n4cc([C@@H]5CCCO5)c5c(N)ncnc54)c3)cc2n1` [Compound I-164] the value was 10 to 100 nM; for `Nc1cc(OCc2cncc(-n3cc([C@@H]4CCCO4)c4c(N)ncnc43)c2)ccc1C(=O)N1CCNCC1` [Compound I-166], 100 to 1000 nM; for `CCNc1ccc2ccc(CCc3cncc(-n4cc(C5CCCO5)c5c(N)ncnc54)c3)cc2n1` (stereo not drawn) [Compound I-157], 10 to 100 nM.
`Nc1ncnc2c1c([C@H]1CCCO1)cn2-c1cncc(COc2ccc3ccc(N4CCC4)nc3c2)n1` [Compound I-160]: the IC50 in test [2] lay in the range of 10 to 100 nM.
Same read-out and setting: for `CCc1cc(NCCOC)c2ccc(OCc3cncc(-n4cc([C@H]5CCCO5)c5c(N)ncnc54)c3)cc2n1` [Compound I-133] the value was 10 to 100 nM.
